According to US20160192641A1, “STABLE EMULSION FORMULATION HINDERING INTERACTION ACROSS THE WATER-OIL INTERFACE” (Dow AgroSciences LLC, priority 2007, published 2016):

Excerpt: For a given oil phase which is often designed to meet specific market, customer, or application needs, actives or other components in aqueous phase can form and grow large crystals in oil phase due to high solubilities and Oswald Ripening, and result in emulsion destabilization.

Row | SMILES | solubility in methyl soyate | solubilities in acetochlor
1 | O=C(Nc1ccc(F)cc1F)c1cccnc1Oc1cccc(C(F)(F)F)c1 [diflufenican] | > 1 % by wt | 
2 | COc1cnc(OC)n2nc(NS(=O)(=O)c3c(OCC(F)F)cccc3C(F)(F)F)nc12 [penoxsulam] |  | > 1000 ppm
